{
  "source": "patent US12668568B2",
  "about": "“Adamantanyl-substituted benzamide compounds and their use as P2X7 receptor antagonists” (The University of Sydney, priority 2018, dated 2026)",
  "key": {"[1]": {"assay": "Lipophilicity: Log D7.4 determined by HPLC method", "format": "physicochemical", "conditions": "for logD7.4 / chromatographic logD: HPLC retention time, 65 v/v % methanol in 50 mM sodium phosphate buffer pH 7.4; for chromatographic logD: reversed-phase HPLC, Waters Sunfire C18 5 µm column, read-out: logD7.4; for lipophilicity compared with compound 31: HPLC logD7.4", "method": "Lipophilicity of the compounds was evaluated by an experimentally derived Log D7.4 value determined by a HPLC method.^1 It is preferred that the lipophilicity of the compounds is as low as possible.\nHigh Performance Liquid Chromatography was performed on a Waters 2695 Separations module equipped with the Waters Alliance Series Column Heater (set at 30° C.) and Waters 2996 Photodiode Array (PDA) Detector. […] Standards and samples were dissolved in the elution solvent mixture and then filtered prior to injection. Data acquisition and processing was performed with the Waters Empower 2 software and Microsoft Excel™ was used for data analysis. All standards and samples were analyzed in triplicate.\n. An […] curve was obtained (FIG. 1) which was fitted to the equation [Log D7.4=0.8342(RET)+1.7393] with an R^2 of 0.97.\nThe RET from three injections was averaged with the log D7.4 value extrapolated from the equation found in FIG. 1."}, "CYP3A4": {"target": "T1, CYP3A4 (Homo sapiens, UniProt P08684)", "T1 construct": "host or cells: insect cells infected with recombinant baculovirus (microsomes)", "T1 sequence (P08684 whole entry)": "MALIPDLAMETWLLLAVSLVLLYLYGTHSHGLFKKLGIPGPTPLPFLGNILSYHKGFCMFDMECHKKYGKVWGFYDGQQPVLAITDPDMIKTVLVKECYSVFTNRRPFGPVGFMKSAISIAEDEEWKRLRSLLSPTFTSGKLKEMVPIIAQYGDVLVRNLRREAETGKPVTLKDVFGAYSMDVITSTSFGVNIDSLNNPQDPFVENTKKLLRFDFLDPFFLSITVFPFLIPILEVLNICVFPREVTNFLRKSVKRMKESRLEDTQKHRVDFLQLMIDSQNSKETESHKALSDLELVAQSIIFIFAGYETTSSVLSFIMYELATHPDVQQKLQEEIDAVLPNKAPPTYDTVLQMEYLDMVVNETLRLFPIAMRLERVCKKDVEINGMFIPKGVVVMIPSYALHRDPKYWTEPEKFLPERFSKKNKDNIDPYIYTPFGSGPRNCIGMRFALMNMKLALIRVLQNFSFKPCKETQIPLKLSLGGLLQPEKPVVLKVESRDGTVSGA", "assay": "Cytochrome profiling CYP3A4 (baculosomes)", "format": "in vitro ADME", "conditions": "probe fluorogenic probe substrate (not named), 10 μM substrate", "source_text": "Cytochrome P450 (abbreviated CYP, P450 or CYP450) belong to very large and diverse superfamily of haemoproteins which accept both exogenous and endogenous compounds as substrates in enzymatic reactions and play a major role in drug metabolism. Although this class has more than 50 enzymes just 5 of them (CYP1A2, CYP2C9, CYP2C19, CYP2D6 and CYP3A4) are able to metabolise almost 90% of all drugs. Inhibition of these enzymes is one of the major reasons for drug-drug interactions. Consequently, detailed CYP inhibition profiles are a regulatory requirement for all new drugs. Inhibition potencies against the five most relevant CYP isoforms is performed using baculosomes; microsomes prepared from insect cells infected with recombinant baculovirus containing cDNA for a specific human P450 isozyme. The baculosomes are incubated with drug at a concentration of 1 μM in the presence of a probe substrate for 60 minutes at 37° C. The probe is normally metabolised by the baculosomes to produce a fluorescent metabolite. A substrate drug will compete for the isozyme and reduce the metabolism of the probe resulting in a decrease in the fluorescent signal. The percent inhibition due to the presence of the test compound is calculated using the following equation: [formula] • X=fluorescent intensity observed in the presence of test compound • A=fluorescent intensity observed in control • B=fluorescent intensity observed in the presence of the probe control"}, "[2]": {"test_system": "secreted IL-1β in THP-1 monocytic cells", "assay": "IL-1β dose-response testing in THP-1 monocytic cell line", "format": "cell-based", "conditions": "Homo sapiens; THP-1 treated with interferon-γ and lipopolysaccharide 3 hours, compound 1-1000 nM, ATP stimulation; read-out: LogEC50, secreted IL-1β (converted)", "method": "Supernatant was collected to measure the level of secreted IL-1β.\nCells were plated in 48-well Corning cell-bind plates at 2×10^5 cells/well, and treated with recombinant human interferon-γ (10 ng/mL) and lipopolysaccharide (25 ng/mL) for 3 hours. […] Supernatant was collected to measure the level of secreted IL-1ß.\n(§1) Changes in secreted and intracellular levels of IL-1β were measured by ELISA (RnD systems). Samples were diluted 1 in 2 in commercial diluent, assayed according to manufacturer's instructions and detected at 450/570 nm."}, "[3]": {"test_system": "ATP-induced IL-1β secretion in PBMCs", "assay": "IL-1β ELISA in patient-derived PBMCs/monocytes (STEMI and controls)", "format": "cell-based, human", "conditions": "pre-incubated with 1 μmol/L compound", "source_text": "The role of inflammation in cardiovascular disease processes was explored. Patients that were admitted to the Royal North Shore Hospital, Sydney, Australia for clinically indicated cardiac catheterisation were consented for the study. These patients were subdivided according to their clinical presentation: • 1. Patients presenting with STEMI, characterised by recent-onset chest pain, ECG changes and/or raised cardiac enzymes. • 2. Age and sex-matched control patients with no evidence of coronary stenosis on angiography.\nPatients were excluded from the study if they were taking anti-inflammatory medications, or if they had clinical or biochemical evidence of active infection or inflammation.\n20 mL of blood was collected from the arterial sheath into an EDTA-coated tube. Samples were immediately diluted 1:1 in phosphate buffered saline (PBS) and layered on top of Ficoll-Paque for gradient separation. Samples were centrifuged at […] for 15 minutes. […]\nas §1\nPeripheral blood mononuclear cells (PBMCs) were collected from 19 STEMI patients at the time of infarct, and 3 healthy controls. […] IL-1β levels were measured by ELISA."}},
  "data": [
    {"smiles": "COc1ccc(Cl)c(C(=O)NCC23CC4CC(CC(C4)C2)C3)c1", "note": "[Compound 31, reference compound]", "values": [
      {"measurement": "logD7.4", "setting": "[1]", "result": 4.23},
      {"measurement": "chromatographic logD", "setting": "[1]", "result": 4.23},
      {"measurement": "inhibition at 60 min, 1 μM", "setting": "CYP3A4", "result": 84.4, "unit": "%"}
    ]},
    {"smiles": "COc1ccc(Cl)c(C(=O)NCC23CC4CC(F)(CC(F)(C4)C2)C3)c1", "note": "[Compound 2, 2-Chloro-N-((3,5-difluoroadamantan-1-yl)methyl)-5-methoxybenzamide]", "values": [
      {"measurement": "lipophilicity compared with compound 31", "setting": "[1]", "result": "less lipophilic than compound 31"},
      {"measurement": "logD7.4", "setting": "[1]", "result": 2.85},
      {"measurement": "chromatographic logD", "setting": "[1]", "result": 2.85},
      {"measurement": "inhibition at 60 min, 1 μM", "setting": "CYP3A4", "result": 89.9, "unit": "%"}
    ]},
    {"smiles": "COc1ccc(Cl)c(C(=O)NCC23CC4CC(CC(F)(C4)C2)C3)c1", "note": "[Compound 3, 2-Chloro-N-((3-fluoroadamantan-1-yl)methyl)-5-methoxybenzamide]", "values": [
      {"measurement": "lipophilicity compared with compound 31", "setting": "[1]", "result": "less lipophilic than compound 31"},
      {"measurement": "logD7.4", "setting": "[1]", "result": 3.27},
      {"measurement": "chromatographic logD", "setting": "[1]", "result": 3.27},
      {"measurement": "inhibition at 60 min, 1 μM", "setting": "CYP3A4", "result": 88.8, "unit": "%"}
    ]},
    {"smiles": "COc1ccc(Cl)c(C(=O)NCC23CC4(F)CC(F)(CC(F)(C4)C2)C3)c1", "note": "[Compound 1, 2-Chloro-N-((3,5,7-trifluoroadamantan-1-yl)methyl)-5-methoxybenzamide]", "values": [
      {"measurement": "EC50", "setting": "[2]", "result": 8.53, "unit": "nM"},
      {"measurement": "lipophilicity compared with compound 31", "setting": "[1]", "result": "less lipophilic than compound 31"},
      {"measurement": "logD7.4", "setting": "[1]", "result": 2.83},
      {"measurement": "chromatographic logD", "setting": "[1]", "result": 2.83},
      {"measurement": "secreted IL-1β after ATP stimulation, STEMI PBMCs", "setting": "[3]; STEMI patients' PBMCs", "result": "13.9±2.4"},
      {"measurement": "secreted IL-1β after ATP stimulation, control PBMCs", "setting": "[3]; healthy controls' PBMCs", "result": "7.5±2.8"},
      {"measurement": "inhibition at 60 min, 1 μM", "setting": "CYP3A4", "result": 89.9, "unit": "%"}
    ]}
  ]
}
